SMILES strings stand for the structures. Some results are limits rather than exact numbers.

This test deals with T1, EHMT2 (Homo sapiens, UniProt Q96KQ7).
T1 construct: host or cells: MDA-MB-231
T1 sequence (Q96KQ7 1-1210): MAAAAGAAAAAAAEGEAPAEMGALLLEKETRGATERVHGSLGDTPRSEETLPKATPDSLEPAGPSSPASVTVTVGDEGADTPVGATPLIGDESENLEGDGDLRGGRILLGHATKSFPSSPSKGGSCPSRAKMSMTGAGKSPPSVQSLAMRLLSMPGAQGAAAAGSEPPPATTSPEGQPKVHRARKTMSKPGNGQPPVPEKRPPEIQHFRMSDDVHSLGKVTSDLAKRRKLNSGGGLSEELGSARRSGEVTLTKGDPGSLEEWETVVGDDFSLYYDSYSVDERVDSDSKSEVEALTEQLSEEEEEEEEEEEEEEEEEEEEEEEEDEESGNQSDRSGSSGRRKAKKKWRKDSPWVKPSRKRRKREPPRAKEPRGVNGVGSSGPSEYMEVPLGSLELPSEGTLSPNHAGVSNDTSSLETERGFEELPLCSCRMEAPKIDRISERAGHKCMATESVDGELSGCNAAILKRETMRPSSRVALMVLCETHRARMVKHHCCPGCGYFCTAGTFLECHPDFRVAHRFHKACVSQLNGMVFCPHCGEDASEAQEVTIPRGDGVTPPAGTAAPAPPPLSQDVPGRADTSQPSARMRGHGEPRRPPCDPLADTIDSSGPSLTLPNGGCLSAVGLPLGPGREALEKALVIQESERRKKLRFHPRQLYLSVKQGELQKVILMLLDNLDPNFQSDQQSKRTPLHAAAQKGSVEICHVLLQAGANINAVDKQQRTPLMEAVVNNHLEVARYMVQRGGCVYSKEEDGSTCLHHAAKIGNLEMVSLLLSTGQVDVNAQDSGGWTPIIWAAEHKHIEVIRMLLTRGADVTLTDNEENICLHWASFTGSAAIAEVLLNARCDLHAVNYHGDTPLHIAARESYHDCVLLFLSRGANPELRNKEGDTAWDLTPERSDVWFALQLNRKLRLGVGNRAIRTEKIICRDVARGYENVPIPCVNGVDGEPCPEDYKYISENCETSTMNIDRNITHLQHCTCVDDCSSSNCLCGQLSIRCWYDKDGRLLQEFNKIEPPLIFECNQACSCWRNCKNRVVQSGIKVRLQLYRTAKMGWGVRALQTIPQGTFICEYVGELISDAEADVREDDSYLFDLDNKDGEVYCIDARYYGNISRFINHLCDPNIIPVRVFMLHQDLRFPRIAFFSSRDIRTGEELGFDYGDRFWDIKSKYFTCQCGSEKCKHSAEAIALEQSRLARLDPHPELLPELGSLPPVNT
The test is described as follows: MDA-MB-231 H3K9me2 in-cell Western assay (EHMT2 ICW). It counts as cell-based. Conditions: Table VI; read-out: EHMT2 ICW IC50. In short, it runs like this:
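Steps: compound added to plate, MDA-MB-231 cells plated in RPMI with 10% FBS, incubation for 48 h at 37 °C, fixation, overnight anti-H3K9me2 staining at 4 °C, and donkey anti-mouse 800CW with DRAQ5 counterstain. IC50 values come from percent inhibition fitted with a four-parameter model.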
Take `CCN1CC(COc2cc3nc(C)cc(C4CCN(C(C)C)CC4)c3cc2OC)C1` [Compound 661]: the IC50 was 1 to 10 µM.

In the case of `CCN1CCC(NCc2cc(Nc3nc(C)cc(NC)n3)ccc2OC)C1` (stereo not shown) [Compound 646], the IC50 was in the range of 1 to 10 µM. With `COc1cc2c(C3CCN(C(C)C)CC3)cc(C)nc2nc1OCCCN1CCCC1` [Compound 670] the figure was above 10 µM; with `CCN1CC(COc2cc3nc(C)nc(C4CCN(C)CC4)c3cc2OC)C1` [Compound 664], above 10 µM; with `CNc1ccnc(Nc2ccc(OC)c(CNC[C@H]3CCCN3)c2)n1` [Compound 1020], above 10 µM. Regarding `COc1cc2c(C3CCN(C)CC3)nc(C)nc2cc1OCCCN1CCCC1` [Compound 658], the IC50 is above 10 µM. Under `CN1CCC(Nc2ncc(OCC3CCN(C)C3)cn2)CC1` (stereo not shown) [Compound 632] stands above 10 µM. Under `CCN1CC[C@@H](COc2cc3nc(C)nc(C4CCN(C(C)C)CC4)c3cc2OC)C1` [Compound 674] stands above 10 µM; under `COc1cc(Nc2ccc3[nH]ncc3n2)ncc1OCCCN1CCCC1` [Compound 648], above 10 µM. Take `COc1cnc(Nc2cccc3nccn23)nc1OCCCN1CCCC1` [Compound 654]: the IC50 was above 10 µM. With `CNc1ccnc(Nc2ccc(OC)c(CNC[C@@H]3CCCN3)c2)n1` [Compound 1019] the figure was above 10 µM; with `CNc1nc(C)c2cc(OC)c(OCCCN3CCCC3)cc2n1` [Compound 737], above 10 µM.

Take `CC(C)N1CC(COc2cnc(NC3CCNCC3)nc2)C1` [Compound 636]: the IC50 is above 10 µM. As to `CCN1CC(NCc2cc(Nc3nc(C)cc(NC)n3)ccc2OC)C1` [Compound 647], the IC50 was above 10 µM.

Regarding `COc1cc2c(C3CCN(C)CC3)cc(-c3cc[nH]n3)nc2cc1OCCCN1CCCC1` [Compound 678], the IC50 fell in the range of 1 to 10 µM.

Take `COc1cc2c(C3CCN(C)CC3)c(F)c(C)nc2cc1OCCCN1CCCC1` [Compound 652]: the IC50 is 1 to 10 µM.
